For experiment [1], the target named is GDP-bound KRAS protein (aa 1-169), containing both G12D and C118A amino acid substitutions (Homo sapiens (Human), UniProt P01116, C118A/G12D). As to the kind of experiment: KRAS G12D Coupled Nucleotide Exchange Assay. Format: biochemical. The settings on record: read-out: KRAS G12D Coupled Exchange IC50.
For a further experiment, the system named is MIA PaCa-2 cells. As to the kind of experiment: MIA PaCa-2 CTG Assay (CellTiter-Glo cell viability). Format: cell-based, human. The settings on record: Mia PaCa-2, 72 h, second value of the cell, read-out: G12D/C/V Cell Proliferation CTG (72 h) Mia PaCa-2. The method, boiled down: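 Human pancreatic carcinoma cells in RPMI 1640 with 10% FBS, seeded at 1.67E+04 cells/mL and left overnight, were treated with serially diluted compound for 72 h at 37° C, 5% CO2. Viability was read by CellTiter-Glo luminescence normalized to DMSO; IC50 came from a 4-parameter logistic fit.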

For experiment [2], the system named is Phosphorylation of ERK1/2 in AsPC-1 cells. Kind of experiment: Phospho-ERK1/2 MSD Assay. The conditions noted are these: read-out: 2 h p-ERK (AsPC-1 cells), IC50. The class given is cell-based, human. The method, boiled down: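 Read-out: MSD electrochemiluminescent detection of phosphorylated ERK1/2 in whole-cell lysates, fitted to a 4-parameter logistic curve for IC50. Prior to lysis, AsPC-1 cells (25,000 per well) received a 2 h compound dose-response at 37 °C.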

Experiment [3] addresses His-tagged KRAS G12D protein (Homo sapiens (Human), UniProt P01116, G12D). Kind of experiment: KRAS G12D TR-FRET Assay. Format: binding. The conditions noted are these: read-out: KRAS G12D Binding IC50. In short, it runs like this:
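His-tagged KRAS G12D (diluted to 20 nM in pH 7.4 HEPES buffer with 10 mM MgCl2 and 10 μM GDP) was preincubated with titrated compound for 30 min at room temperature. Biotinylated KRPep-2d peptide (diluted to 20 nM) was then added for 1 h, and displacement was monitored by TR-FRET.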
(In general: Time-resolved FRET reads energy transfer from a long-lived donor to a nearby acceptor.)

In another experiment the test system is AsPC-1 cells. As to the kind of experiment: AsPC-1 CTG Assay (CellTiter-Glo cell viability). The class given is cell-based, human. The settings on record: AsPC-1, 72 h, first value of the cell, read-out: G12D/C/V Cell Proliferation CTG (72 h) AsPC-1. The method, boiled down: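 Human pancreatic AsPC-1 or colon SW620 cells in RPMI 1640 with 10% FBS, seeded overnight, then exposed to serially diluted compound for 72 h at 37 °C. CellTiter-Glo luminescence normalized to DMSO control; IC50 from a 4-parameter logistic model.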
On the technique in general: Cellular ATP, detected with luciferase, serves as a proxy for viable cell number.

Where two headings read alike, the source gives them in different places.

GDP-bound KRAS protein (aa 1-169), containing both G12D and C118A amino acid substitutions, sequence (P01116 other isoform, or with tags, fused parts or gaps G12D/C118A): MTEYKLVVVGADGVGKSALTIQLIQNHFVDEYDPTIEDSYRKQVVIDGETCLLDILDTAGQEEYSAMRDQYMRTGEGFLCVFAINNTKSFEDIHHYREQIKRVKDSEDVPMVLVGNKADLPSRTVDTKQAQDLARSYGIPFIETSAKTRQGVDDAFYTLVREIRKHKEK
His-tagged KRAS G12D protein, sequence (P01116 other isoform, or with tags, fused parts or gaps G12D): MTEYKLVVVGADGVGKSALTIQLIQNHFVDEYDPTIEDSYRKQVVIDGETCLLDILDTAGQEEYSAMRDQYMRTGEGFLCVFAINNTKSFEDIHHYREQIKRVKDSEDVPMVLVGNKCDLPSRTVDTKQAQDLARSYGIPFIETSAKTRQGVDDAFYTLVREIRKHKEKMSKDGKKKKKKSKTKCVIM

On to `O=C1OCCCc2c(Cl)cc3[nH]ncc3c2-c2ncc3c(nc(OC[C@H]4CC[C@@H]5COCCN54)nc3c2F)N2CCOC[C@H](C2)O1` [Example 185, (26S)-18-chloro-32-fluoro-4-((6R,8aR)-hexahydro-1H-pyrrolo[2,1-c][1,4]oxazin-6-ylmethoxy)-23,25,28-trioxa-1,3,5,9,14,15-hexaazahexacyclo[24.4.1.1~6,10~.0~2,7~.0~11,19~.0~12,16~]dotriaconta-2,4,6,8,10(32),11,13,16,18-nonaen-24-one], for which the IC50 in experiment [1] was found to be 5 nM; with MIA PaCa-2 cells (Homo sapiens), 33 nM; in experiment [2] (Homo sapiens, ASPC1, 2 h), 12 nM; in experiment [3], 6 nM; in the experiment with AsPC-1 cells (Homo sapiens, ASPC1, 72 h) it was 38 nM.

`O=C1OCCCc2c(Cl)cc3[nH]ncc3c2-c2c(F)cc3c(nc(OC[C@@]45CCCN4C[C@H](F)C5)nc3c2F)N2CCOC[C@H](C2)O1` [Example 187, p-(26S)-18-chloro-9,32-difluoro-4-(((2R,7aS)-2-fluorotetrahydro-1H-pyrrolo[1,2-a]pyrrol-7a(5H)-yl)methoxy)-23,25,28-trioxa-1,3,5,14,15-pentaazahexacyclo[24.4.1.1~6,10~.0~2,7~.0~11,19~.0~12,16~]dotriaconta-2,4,6,8,10(32),11,13,16,18-nonaen-24-one]: the IC50 in experiment [1] was found to be 2 nM; with MIA PaCa-2 cells (Homo sapiens) it was 15 nM; in experiment [2] (Homo sapiens, ASPC1, 2 h) it was 4.6 nM; in experiment [3], 4 nM; in the experiment with AsPC-1 cells (Homo sapiens, ASPC1, 72 h) it was 76 nM.

On to `O=C1OCCCc2c(Cl)cc3[nH]ncc3c2-c2ccc3c(nc(OC[C@@]45CCCN4C[C@H](F)C5)nc3c2F)N2CCOC[C@H](C2)O1` [Example 189, (26S)-18-chloro-32-fluoro-4-(((2R,7aS)-2-fluorotetrahydro-1H-pyrrolo[1,2-a]pyrrol-7a(5H)-yl)methoxy)-23,25,28-trioxa-1,3,5,14,15-pentaazahexacyclo[24.4.1.1~6,10~.0~2,7~.0~11,19~.0~12,16~]dotriaconta-2,4,6,8,10(32),11,13,16,18-nonaen-24-one], for which the IC50 came out at 2 nM in experiment [1]; 24 nM with MIA PaCa-2 cells (Homo sapiens); 4.9 nM in experiment [2] (Homo sapiens, ASPC1, 2 h); 3 nM in experiment [3]; 115 nM with AsPC-1 cells (Homo sapiens, ASPC1, 72 h).

With `CN1CCC[C@H]1COc1nc2c3cnc(c(F)c3n1)-c1c(c(Cl)cc3[nH]ncc13)CCCOC(=O)O[C@@H]1CCCCN2C1` [Example 202, (26R)-18-chloro-32-fluoro-4-(((2S)-1-methyl-2-pyrrolidinyl)methoxy)-23,25-dioxa-1,3,5,9,14,15-hexaazahexacyclo[24.4.1.1~6,10~.0~2,7~.0~11,19~.0~12,16~]dotriaconta-2,4,6,8,10(32),11,13,16,18-nonaen-24-one], the IC50 was found to be 3 nM in experiment [1]; 113 nM in the experiment with MIA PaCa-2 cells (Homo sapiens); 41.1 nM in experiment [2] (Homo sapiens, ASPC1, 2 h); 6 nM in experiment [3]; 494 nM in the experiment with AsPC-1 cells (Homo sapiens, ASPC1, 72 h).

For `O=C1OCCCc2c(F)cc3[nH]ncc3c2-c2ncc3c(nc(OC[C@@]45CCCN4C[C@H](F)C5)nc3c2F)N2CCOC[C@H](C2)O1` [Example 208, (26S)-18,32-difluoro-4-(((2R,7aS)-2-fluorotetrahydro-1H-pyrrolo[1,2-a]pyrrol-7a(5H)-yl)methoxy)-23,25,28-trioxa-1,3,5,9,14,15-hexaazahexacyclo[24.4.1.1~6,10~.0~2,7~.0~11,19~.0~12,16~]dotriaconta-2,4,6,8,10(32),11,13,16,18-nonaen-24-one], the IC50 was determined as 2 nM in experiment [1]; 38 nM with MIA PaCa-2 cells (Homo sapiens); 20.7 nM in experiment [2] (Homo sapiens, ASPC1, 2 h); 3 nM in experiment [3]; 262 nM with AsPC-1 cells (Homo sapiens, ASPC1, 72 h).

As for `O=C1OCCc2c(Cl)cc3[nH]ncc3c2-c2ncc3c(nc(OC[C@@]45CCCN4C[C@H](F)C5)nc3c2F)N2CCO[C@@H](CO1)C2` [Example 217], the IC50 is 2 nM in experiment [1]; 49 nM with MIA PaCa-2 cells (Homo sapiens); 23 nM in experiment [2] (Homo sapiens, ASPC1, 2 h); 4 nM in experiment [3]; 455 nM in the experiment with AsPC-1 cells (Homo sapiens, ASPC1, 72 h).

On to `O=C1OCCc2c(Cl)cc3[nH]ncc3c2-c2ncc3c(nc(OC[C@@]45CCCN4C[C@H](F)C5)nc3c2F)N2CCOCC(CO1)C2` (some centres unmarked) [Example 220], for which the IC50 came out at 3 nM in experiment [1]; 64 nM in the experiment on MIA PaCa-2 cells (Homo sapiens); 58.9 nM in experiment [2] (Homo sapiens, ASPC1, 2 h); 6 nM in experiment [3]; 816 nM with AsPC-1 cells (Homo sapiens, ASPC1, 72 h).

As for `O=C1OCCc2c(Cl)cc3[nH]ncc3c2-c2ncc3c(nc(OC[C@@]45CCCN4C[C@H](F)C5)nc3c2F)N2CCCCC(CO1)C2` (some centres unmarked) [Example 222], the IC50 in experiment [1] stood at 2 nM; in the experiment on MIA PaCa-2 cells (Homo sapiens) it was 52 nM; in experiment [2] (Homo sapiens, ASPC1, 2 h) it was 9.4 nM; in experiment [3], 3 nM; with AsPC-1 cells (Homo sapiens, ASPC1, 72 h) it was 287 nM.

As for `Fc1c2ncc3c(nc(OC[C@@]45CCCN4C[C@H](F)C5)nc13)N1CCC[C@@H](Cc3ncc(o3)CCc3c(Cl)cc4[nH]ncc4c3-2)C1` [Example 231], the IC50 in experiment [1] was 4 nM; with MIA PaCa-2 cells (Homo sapiens) it was 42 nM; in experiment [2] (Homo sapiens, ASPC1, 2 h) it was 11.6 nM; in experiment [3], 6 nM; with AsPC-1 cells (Homo sapiens, ASPC1, 72 h), 29 nM.

For the compound `Fc1c2ncc3c(nc(OC[C@@]45CCCN4C[C@H](F)C5)nc13)N1CCC[C@H](C1)c1cnn(n1)CCCc1c(Cl)cc3[nH]ncc3c1-2` [Example 259], the IC50 in experiment [1] is 3 nM; in the experiment on MIA PaCa-2 cells (Homo sapiens), 126 nM; in experiment [2] (Homo sapiens, ASPC1, 2 h), 25.3 nM; in experiment [3] it was 4 nM; in the experiment with AsPC-1 cells (Homo sapiens, ASPC1, 72 h), 215 nM.

For `CN1CCC[C@H]1COc1nc2c3cnc(c(F)c3n1)-c1c(c(Cl)cc3[nH]ncc13)CCCOCC(=O)N1CC[C@@H]3CCN2C[C@@H]31` [Example 267, (29S,33R)-18-chloro-34-fluoro-4-(((2S)-1-methyl-2-pyrrolidinyl)methoxy)-23-oxa-1,3,5,9,14,15,26-heptaazaheptacyclo[24.5.2.1~6,10~.0~2,7~.0~11,19~.0~12,16~.0~29,33~]tetratriaconta-2,4,6(34),7,9,11,13,16,18-nonaen-25-one], the IC50 in experiment [1] worked out at 2 nM; in the experiment on MIA PaCa-2 cells (Homo sapiens), 121 nM; in experiment [2] (Homo sapiens, ASPC1, 2 h), 33.5 nM; in experiment [3] it was 4 nM; with AsPC-1 cells (Homo sapiens, ASPC1, 72 h), 80 nM.

Consider `O=C1COCCc2c(Cl)cc3[nH]ncc3c2-c2ncc3c(nc(OC[C@@]45CCCN4C[C@H](F)C5)nc3c2F)N2CC[C@H]3CCN1[C@H]3C2` [Example 270, (28S,32R)-18-chloro-33-fluoro-4-(((2R,7aS)-2-fluorotetrahydro-1H-pyrrolo[1,2-a]pyrrol-7a(5H)-yl)methoxy)-22-oxa-1,3,5,9,14,15,25-heptaazaheptacyclo[23.5.2.1~6, 10~.0~2,7~.0~11,19~.0~12,16~.0~28,32~]tritriaconta-2,4,6,8,10(33),11,13,16,18-nonaen-24-one], for which the IC50 was found to be 2 nM in experiment [1]; 675 nM in the experiment with MIA PaCa-2 cells; 123 nM in experiment [2] (2 h); 7 nM in experiment [3]; 606 nM in the experiment with AsPC-1 cells.

As to `Cc1cc2[nH]ncc2c2c1CCCOCC(=O)N1CC[C@@H]3CCN(C[C@@H]31)c1nc(OC[C@@]34CCCN3C[C@H](F)C4)nc3c(F)c-2ncc13` [Example 277, (29S,33R)-34-fluoro-4-(((2R,7aS)-2-fluorotetrahydro-1H-pyrrolo[1,2-a]pyrrol-7a(5H)-yl)methoxy)-18-methyl-23-oxa-1,3,5,9,14,15,26-heptaazaheptacyclo[24.5.2.1~6,10~.0~2,7~.0~11,19~.0~12,16~.0~29,33~]tetratriaconta-2,4,6,8,10(34),11,13,16,18-nonaen-25-one], the IC50 in experiment [1] stood at 2 nM; with MIA PaCa-2 cells (Homo sapiens), 60 nM; in experiment [2] (Homo sapiens, ASPC1, 2 h) it was 11 nM; in experiment [3] it was 3 nM; in the experiment with AsPC-1 cells (Homo sapiens, ASPC1, 72 h) it was 88 nM.

The record behind these values is patent publication US20240294551A1 (AMGEN INC., priority 2022, published 2024).
